Measurements from the NIST ThermoML archive (doi:10.1016/j.jct.2004.07.024).

Assay: xn = mol fraction of the nth substance listed
Details: 101.33 kPa, Liquid

C[S+](C)[O-] [dimethyl sulfoxide] + Cc1ccccc1
Details | mass density [kg/m3]
293.15 K, x2 = 0.0689 | 1077.87
293.15 K, x2 = 0.1505 | 1053.27
293.15 K, x2 = 0.2269 | 1031.56
293.15 K, x2 = 0.3036 | 1010.99
293.15 K, x2 = 0.3758 | 992.64
293.15 K, x2 = 0.4568 | 973.24
293.15 K, x2 = 0.5177 | 959.33
293.15 K, x2 = 0.5769 | 946.41
293.15 K, x2 = 0.6342 | 934.37
293.15 K, x2 = 0.6885 | 923.31
293.15 K, x2 = 0.7512 | 911.04
293.15 K, x2 = 0.8181 | 898.38
293.15 K, x2 = 0.8856 | 886.05
293.15 K, x2 = 0.9553 | 873.71
303.15 K, x2 = 0.0652 | 1069.85
303.15 K, x2 = 0.1295 | 1050.38
303.15 K, x2 = 0.1806 | 1035.51
303.15 K, x2 = 0.2563 | 1014.57
303.15 K, x2 = 0.3098 | 1000.5
303.15 K, x2 = 0.3845 | 981.74
303.15 K, x2 = 0.4456 | 967.18
303.15 K, x2 = 0.5169 | 950.98
303.15 K, x2 = 0.5813 | 937.04
303.15 K, x2 = 0.6645 | 919.88
303.15 K, x2 = 0.7499 | 903.18
303.15 K, x2 = 0.8114 | 891.64
303.15 K, x2 = 0.8802 | 879.15
303.15 K, x2 = 0.9532 | 866.39
313.15 K, x2 = 0.0661 | 1059.41
313.15 K, x2 = 0.1202 | 1043.16
313.15 K, x2 = 0.1891 | 1023.36
313.15 K, x2 = 0.2403 | 1009.32
313.15 K, x2 = 0.2945 | 995.06
313.15 K, x2 = 0.3615 | 978.24
313.15 K, x2 = 0.4369 | 960.28
313.15 K, x2 = 0.5156 | 942.59
313.15 K, x2 = 0.5813 | 928.56
313.15 K, x2 = 0.6558 | 913.41
313.15 K, x2 = 0.7267 | 899.63
313.15 K, x2 = 0.7956 | 886.78
313.15 K, x2 = 0.8821 | 871.32
313.15 K, x2 = 0.9448 | 860.52
323.15 K, x2 = 0.0884 | 1042.41
323.15 K, x2 = 0.1236 | 1032.08
323.15 K, x2 = 0.1869 | 1014.1
323.15 K, x2 = 0.2536 | 996.08
323.15 K, x2 = 0.3285 | 976.94
323.15 K, x2 = 0.3996 | 959.75
323.15 K, x2 = 0.4501 | 948.11
323.15 K, x2 = 0.4969 | 937.7
323.15 K, x2 = 0.5563 | 925
323.15 K, x2 = 0.616 | 912.74
323.15 K, x2 = 0.6725 | 901.61
323.15 K, x2 = 0.7562 | 885.79
323.15 K, x2 = 0.8532 | 868.42
323.15 K, x2 = 0.9458 | 852.63
333.15 K, x2 = 0.0598 | 1040.93
333.15 K, x2 = 0.1436 | 1016.4
333.15 K, x2 = 0.2258 | 993.84
333.15 K, x2 = 0.2931 | 976.44
333.15 K, x2 = 0.3652 | 958.78
333.15 K, x2 = 0.4112 | 948.06
333.15 K, x2 = 0.4859 | 931.36
333.15 K, x2 = 0.5301 | 921.94
333.15 K, x2 = 0.5965 | 908.31
333.15 K, x2 = 0.6789 | 892.24
333.15 K, x2 = 0.7215 | 884.23
333.15 K, x2 = 0.7899 | 871.86
333.15 K, x2 = 0.8512 | 861.15
333.15 K, x2 = 0.9503 | 844.53
343.15 K, x2 = 0.0599 | 1030.68
343.15 K, x2 = 0.1102 | 1015.93
343.15 K, x2 = 0.1798 | 996.46
343.15 K, x2 = 0.2549 | 976.61
343.15 K, x2 = 0.3169 | 961.13
343.15 K, x2 = 0.3858 | 944.75
343.15 K, x2 = 0.4405 | 932.38
343.15 K, x2 = 0.5258 | 914.08
343.15 K, x2 = 0.5936 | 900.34
343.15 K, x2 = 0.6678 | 886.01
343.15 K, x2 = 0.7166 | 876.96
343.15 K, x2 = 0.7925 | 863.42
343.15 K, x2 = 0.8792 | 848.65
343.15 K, x2 = 0.9552 | 836.24
353.15 K, x2 = 0.0801 | 1014.55
353.15 K, x2 = 0.1526 | 994.06
353.15 K, x2 = 0.2215 | 975.63
353.15 K, x2 = 0.2869 | 959.04
353.15 K, x2 = 0.3568 | 942.26
353.15 K, x2 = 0.4205 | 927.79
353.15 K, x2 = 0.4956 | 911.6
353.15 K, x2 = 0.5723 | 895.96
353.15 K, x2 = 0.6321 | 884.4
353.15 K, x2 = 0.7058 | 870.71
353.15 K, x2 = 0.768 | 859.69
353.15 K, x2 = 0.8363 | 848.04
353.15 K, x2 = 0.8913 | 838.96
353.15 K, x2 = 0.9524 | 829.17
